Results as given in patent US10945966B2, “PEGylated lipid nanoparticle with bioactive lipophilic compound” (Eyesiu Medicines B.V., priority 2015, dated 2021).

Tested on: imiquimod (IMQ)-induced psoriasis-like skin inflammation
Test: Imiquimod (IMQ)-induced psoriasis-like skin inflammation
Assay type: in vivo, mice
Conditions: daily topical
Procedure: A nanoparticle composition comprising the macrolide tacrolimus was produced as detailed in Example 2. The resulting composition was formulated in a spray suitable for topical delivery on the skin. The efficacy of the produced nanoparticles was subsequently tested in an imiquimod (IMQ)-induced psoriasis-like skin inflammation in mice. To this end, psoriasis-like skin inflammation was induced on the ears and shaved backs of the mice by the daily application of 50 mg of 5% Imiquimod (IMQ) cream. Compared to naïve mice, animals treated with IMQ developed clinical signs of disease including statistically significant increases in psoriasis clinical score and ear thickness over time as well as increased spleen weight (splenomegaly) upon termination of the experiment.

C[C@H]1C[C@H]2[C@@H]3CCC4=CC(=O)C=C[C@]4(C)[C@@]3(F)[C@@H](O)C[C@]2(C)[C@@]1(O)C(=O)CCl [Clobetasol]
body weight (unwanted side effect): significant reduction | spleen weight (compared to IMQ-only treated mice): significantly reduced | psoriasis clinical score (compared to IMQ-only treated mice, significant by day 3 and throughout the rest of the study): significantly reduced | ear thickness (compared to IMQ-only treated mice, significant by day 5 and throughout the rest of the study): significantly reduced
